Results: patent US8389557B2, “Triazole derivatives useful as Axl inhibitors” (Rigel Pharmaceuticals, Inc., priority 2005, dated 2013)
Structures can show the parent of a compound that is named as a salt.

Tests used:
[1] = target: T1, Axl (Homo sapiens, UniProt P30530); assay: Phospho-Akt in-cell Western assay (inhibition of Axl activity); assay type: cell-based
T1 construct: endogenous in cells; host or cells: HeLa cells
T1 sequence (P30530 26-894): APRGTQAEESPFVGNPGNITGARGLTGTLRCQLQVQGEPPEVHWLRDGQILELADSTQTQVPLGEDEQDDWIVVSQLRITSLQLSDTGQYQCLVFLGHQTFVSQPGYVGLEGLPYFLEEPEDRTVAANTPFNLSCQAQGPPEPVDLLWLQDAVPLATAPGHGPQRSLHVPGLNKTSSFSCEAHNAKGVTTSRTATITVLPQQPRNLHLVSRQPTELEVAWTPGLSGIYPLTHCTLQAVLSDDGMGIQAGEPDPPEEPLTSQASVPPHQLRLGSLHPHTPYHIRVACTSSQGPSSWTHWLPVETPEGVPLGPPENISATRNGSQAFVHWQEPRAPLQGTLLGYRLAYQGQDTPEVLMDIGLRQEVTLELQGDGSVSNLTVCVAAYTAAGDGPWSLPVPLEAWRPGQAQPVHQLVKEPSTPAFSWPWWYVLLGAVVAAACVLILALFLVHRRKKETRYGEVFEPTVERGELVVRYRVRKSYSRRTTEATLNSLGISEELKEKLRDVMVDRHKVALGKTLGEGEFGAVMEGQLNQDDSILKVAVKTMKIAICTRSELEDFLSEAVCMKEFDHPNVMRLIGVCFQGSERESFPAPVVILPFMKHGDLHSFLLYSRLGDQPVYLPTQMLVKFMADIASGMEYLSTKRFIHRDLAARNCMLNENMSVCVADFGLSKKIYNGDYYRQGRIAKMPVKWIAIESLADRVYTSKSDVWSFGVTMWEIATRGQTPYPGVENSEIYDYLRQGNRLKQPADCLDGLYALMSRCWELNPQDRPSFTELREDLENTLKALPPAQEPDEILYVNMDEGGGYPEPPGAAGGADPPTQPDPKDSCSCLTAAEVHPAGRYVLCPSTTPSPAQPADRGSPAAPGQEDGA
Procedure, shortened: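 HeLa cells on poly-L-lysine, starved 24 h in 0.5% FCS DMEM with Axl/Fc 500 ng/mL, pre-treated with compound 1 h at 37° C. Axl stimulated 5 min by anti-Axl/anti-mouse antibody cross-linking. Fixed cells probed with anti-phospho-Akt and HRP secondary, chemiluminescence read.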

[2] = inhibition of Axl activity, Table 1
[3] = inhibition of Axl activity, phospho-Akt in-cell Western assay, Table 1
[4] = Table 3, Hela cells, Axl antibody cross-linking stimulation, phospho-Akt chemiluminescence

IC50 [1, 3]	SMILES	also measured
	Nc1nc(Nc2cccc(OCCN3CCOCC3)c2)nn1C(=O)c1ccccc1 (as salt: salt) [(Ia-26), 5-amino-3-[3-[2-(morpholin-4-yl)ethoxy]phenylamino]-1-phenylcarbonyl-1H-1,2,4-triazole, hydrogen chloride salt]	melting point: 236.6 to 242.1 °C
	Cc1ccc(C(=O)n2nc(Nc3cccc(OCC#N)c3)nc2N)cc1 [(Ia-5), 5-amino-3-[3-(cyanomethoxy)phenylamino]-1-(4-(methyl)phenyl)carbonyl-1H-1,2,4-triazole]	melting point: 236 to 241 °C
	Cc1ccccc1C(=O)n1nc(Nc2cccc(OCC#N)c2)nc1N [(Ia-8), 5-amino-3-[3-(cyanomethoxy)phenylamino]-1-(2-(methyl)phenyl)carbonyl-1H-1,2,4-triazole]	IC50 [1, 2]: > 20000 nM; melting point: 204.5 to 207.9 °C
	Cc1cccc(C(=O)n2nc(Nc3cccc(OCC#N)c3)nc2N)c1 [(Ia-9), 5-amino-3-[3-(cyanomethoxy)phenylamino]-1-(3-(methyl)phenyl)carbonyl-1H-1,2,4-triazole]	IC50 [1, 2]: > 20000 nM; melting point: 220 to 224.4 °C
	CC(C)Oc1ccc(C(=O)n2nc(Nc3ccc(OCc4ccccc4)cc3)nc2N)cc1 [(Ia-10), 5-amino-3-[4-(benzyloxy)phenylamino]-1-(4-(iso-propoxy)phenyl)carbonyl-1H-1,2,4-triazole]	IC50 [1, 2]: > 20000 nM; melting point: 79 to 81 °C
	CC(C)Oc1ccc(C(=O)n2nc(Nc3ccc(O)cc3)nc2N)cc1 [(Ia-11), 5-amino-3-[4-(hydroxy)phenylamino]-1-(4-(iso-propoxy)phenyl)carbonyl-1H-1,2,4-triazole]	IC50 [1, 2]: 1000 to 10000 nM; melting point: 229 to 234 °C
< 1000 nM	CN(C)c1ccc(C(=O)n2nc(Nc3ccc(OCCN4CCCC4)cc3)nc2N)cc1 [compound #4, 5-Amino-1-(4-(dimethylamino)phenyl)carbonyl-3-[4-[2-(pyrrolidin-1-yl)ethoxy]phenylamino]-1H-1,2,4-triazole]	
	Nc1nc(Nc2ccc(OCCN3CCCC3)cc2)nn1C(=O)c1ccc2cc[nH]c2c1 [compound #5, 5-Amino-1-(1H-indol-6-yl)carbonyl-3-[4-[2-(pyrrolidin-1-yl)ethoxy]phenylamino]-1H-1,2,4-triazole]	IC50 [1, 4]: < 1000 nM
	Nc1nc(Nc2ccc(OCCN3CCCC3)cc2)nn1C(=O)c1cc2ccccc2[nH]1 [compound #6, 5-Amino-1-(1H-indol-2-yl)carbonyl-3-[4-[2-(pyrrolidin-1-yl)ethoxy]phenylamino]-1H-1,2,4-triazole]	IC50 [1, 4]: < 1000 nM
< 1000 nM	Nc1nc(Nc2ccc(OCCN3CCCC3)cc2)nn1C(=O)c1cccc(OC(F)(F)F)c1 [compound #7, 5-Amino-3-[4-[2-(pyrrolidin-1-yl)ethoxy]phenylamino]-1-(3-(trifluoromethoxy)phenyl)carbonyl-1H-1,2,4-triazole]	
< 1000 nM	CN(C)c1ccc(C(=O)n2nc(Nc3ccc(OCCCN4CCCC4)cc3)nc2N)cc1 [compound #8, 5-Amino-1-(4-(dimethylamino)phenyl)carbonyl-3-[4-[3-(pyrrolidin-1-yl)propoxy]phenylamino]-1H-1,2,4-triazole]	
< 1000 nM	Cc1cccc(C(=O)n2nc(Nc3ccc(OCCN4CCCC4)cc3)nc2N)c1 [compound #9, 5-Amino-1-(3-methylphenyl)carbonyl-3-[4-[2-(pyrrolidin-1-yl)ethoxy]phenylamino]-1H-1,2,4-triazole]	
< 1000 nM	CC(C)Oc1ccc(C(=O)n2nc(Nc3ccc(OCCCN4CCCC4)cc3)nc2N)cc1 [compound #10, 5-Amino-1-(4-(iso-propoxy)phenyl)carbonyl-3-[4-[3-(pyrrolidin-1-yl)propoxy]phenylamino]-1H-1,2,4-triazole]	
< 1000 nM	CN(C)c1cccc(C(=O)n2nc(Nc3ccc(OCCN4CCCCC4)cc3)nc2N)c1 [compound #11, 5-Amino-1-(3-(dimethylamino)phenyl)carbonyl-3-[4-[2-(piperidin-1-yl)ethoxy]phenylamino]-1H-1,2,4-triazole]	
< 1000 nM	Cc1ccc(C(=O)n2nc(Nc3ccc(OCCN4CCCC4)cc3)nc2N)cc1 [compound #12, 5-Amino-1-(4-methylphenyl)carbonyl-3-[4-[2-(pyrrolidin-1-yl)ethoxy]phenylamino]-1H-1,2,4-triazole]	
< 1000 nM	Nc1nc(Nc2ccc(OCCN3CCCCC3)cc2)nn1C(=O)c1ccc2c(c1)OCO2 [compound #13, 5-Amino-1-(1,3-benzodioxol-5-yl)carbonyl-3-[4-[2-(piperidin-1-yl)ethoxy]phenylamino]-1H-1,2,4-triazole]	
< 1000 nM	COc1cccc(C(=O)n2nc(Nc3ccc(OCCN4CCCC4)cc3)nc2N)c1 [compound #14, 5-Amino-1-(3-methoxyphenyl)carbonyl-3-[4-[2-(pyrrolidin-1-yl)ethoxy]phenylamino]-1H-1,2,4-triazole]	
< 1000 nM	Nc1nc(Nc2ccc(OCCN3CCCC3)cc2)nn1C(=O)c1ccc2c(c1)OCO2 [compound #16, 5-Amino-1-(1,3-benzodioxol-5-yl)carbonyl-3-[4-[2-(pyrrolidin-1-yl)ethoxy]phenylamino]-1H-1,2,4-triazole]	
< 1000 nM	Nc1nc(Nc2ccc(OCCN3CCCC3)cc2)nn1C(=O)c1ccc2c(c1)OCCO2 [compound #17, 5-Amino-1-(1,4-benzodioxan-6-yl)carbonyl-3-[4-[2-(pyrrolidin-1-yl)ethoxy]phenylamino]-1H-1,2,4-triazole]	
< 1000 nM	COc1cc(OC)cc(C(=O)n2nc(Nc3ccc(OCCN4CCCCC4)cc3)nc2N)c1 [compound #19, 5-Amino-1-(3,5-(dimethoxy)phenyl)carbonyl-3-[4-[2-(piperidin-1-yl)ethoxy]phenylamino]-1H-1,2,4-triazole]	
< 1000 nM	CN(C)c1cccc(C(=O)n2nc(Nc3ccc(OCCCN4CCCC4)cc3)nc2N)c1 [compound #20, 5-Amino-1-(3-(dimethylamino)phenyl)carbonyl-3-[4-[3-(pyrrolidin-1-yl)propoxy]phenylamino]-1H-1,2,4-triazole]	
< 1000 nM	COc1ccc(C(=O)n2nc(Nc3ccc(OCCN4CCCCC4)cc3)nc2N)cc1OC [compound #21, 5-Amino-1-(3,4-(dimethoxy)phenyl)carbonyl-3-[4-[2-(piperidin-1-yl)ethoxy]phenylamino]-1H-1,2,4-triazole]	
< 1000 nM	COc1cc(OC)cc(C(=O)n2nc(Nc3ccc(OCCN4CCCC4)cc3)nc2N)c1 [compound #22, 5-Amino-1-(3,5-(dimethoxy)phenyl)carbonyl-3-[4-[2-(pyrrolidin-1-yl)ethoxy]phenylamino]-1H-1,2,4-triazole]	
< 1000 nM	Nc1nc(Nc2ccc(OCCN3CCCC3)cc2)nn1C(=O)c1ccc(OC(F)(F)F)cc1 [compound #23, 5-Amino-3-[4-[2-(pyrrolidin-1-yl)ethoxy]phenylamino]-1-(4-(trifluoromethoxy)phenyl)carbonyl-1H-1,2,4-triazole]	
	Nc1nc(Nc2ccc(OCCN3CCCC3)cc2)nn1C(=O)c1ccc2nc[nH]c2c1 [compound #25, 5-Amino-1-(benzimidazol-6-yl)carbonyl-3-[4-[2-(pyrrolidin-1-yl)ethoxy]phenylamino]-1H-1,2,4-triazole]	IC50 [1, 4]: 1000 to 10000 nM
1000 to 10000 nM	CC(C)Oc1ccc(C(=O)n2nc(Nc3ccc(N4CCCCC4)cc3)nc2N)cc1 [compound #26, 5-Amino-1-(4-(iso-propoxy)phenyl)carbonyl-3-[4-(piperidin-1-yl)phenylamino]-1H-1,2,4-triazole]	
	Cc1ccc(C(=O)n2nc(Nc3ccc(OCCN4CCCC4)cc3)nc2N)cn1 [compound #28, 5-Amino-1-(6-(methyl)pyridin-3-yl)carbonyl-3-[4-[2-(pyrrolidin-1-yl)ethoxy]phenylamino]-1H-1,2,4-triazole]	IC50 [1, 4]: 1000 to 10000 nM

SMILES	IC50 [1, 3]	also measured
CC(C)(C)Oc1ccc(C(=O)n2nc(Nc3ccc(OCCCN4CCCC4)cc3)nc2N)cc1 [compound #15, 5-Amino-3-[4-[3-(pyrrolidin-1-yl)propoxy]phenylamino]-1-(4-(tert-butoxy)phenyl)carbonyl-1H-1,2,4-triazole]	< 1000 nM	
CC(C)(C)Oc1cccc(C(=O)n2nc(Nc3ccc(OCCN4CCCC4)cc3)nc2N)c1 [compound #18, 5-Amino-3-[4-[2-(pyrrolidin-1-yl)ethoxy]phenylamino]-1-(3-(tert-butoxy)phenyl)carbonyl-1H-1,2,4-triazole]	< 1000 nM	
CC(C)(C)Oc1cccc(C(=O)n2nc(Nc3ccc(OCCCN4CCCC4)cc3)nc2N)c1 [compound #24, 5-Amino-3-[4-[3-(pyrrolidin-1-yl)propoxy]phenylamino]-1-(3-(tert-butoxy)phenyl)carbonyl-1H-1,2,4-triazole]	< 1000 nM	
